Where “and” joins values, the source holds several entries; their conditions need not be identical. Identical values can stand only once. Toxic doses and inconclusive results are not listed.

Experimental findings from PubChem BioAssay AID330 (DTP/NCI, 2004) are described below.

This test deals with P388 leukemia ip, CD2F1 mice, survival T/C. Put plainly: NCI In Vivo Anticancer Drug Screen. Data for tumor model P388 Leukemia (intraperitoneal) in CD2F1 (CDF1) mice. The conditions noted are these: endpoint: median survival time, higher = longer survival. Summed up: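 Mice carrying the transplanted tumor received test compound or vehicle. Survival was recorded in each group, and the value is the treated-group measurement divided by that of the vehicle-treated control group.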

[1] abbreviates: dose: 50.0 mg/kg/injection, schedule: Q01DX005 (ip), vehicle: Klucel (hydroxypropylcellulose) (HPC).
The mark [2] stands for this setting: dose: 100.0 mg/kg/injection, schedule: Q01DX005 (ip), vehicle: Klucel (hydroxypropylcellulose) (HPC).
[3] abbreviates: dose: 200.0 mg/kg/injection, schedule: Q01DX005 (ip), vehicle: Klucel (hydroxypropylcellulose) (HPC).
[4] abbreviates: dose: 100.0 mg/kg/injection, schedule: Q01DX001 (ip), vehicle: saline with Tween-80.
The mark [5] stands for this setting: dose: 200.0 mg/kg/injection, schedule: Q01DX001 (ip), vehicle: saline with Tween-80.
The mark [6] stands for this setting: dose: 100.0 mg/kg/injection, schedule: Q01DX009 (ip), vehicle: saline with Tween-80.
Setting [7] is: dose: 100.0 mg/kg/injection, schedule: Q04DX003 (ip), vehicle: saline with Tween-80.
Setting [8] is: dose: 200.0 mg/kg/injection, schedule: Q01DX009 (ip), vehicle: saline with Tween-80.
Where [9] appears, read: dose: 200.0 mg/kg/injection, schedule: Q04DX003 (ip), vehicle: saline with Tween-80.
Where [10] appears, read: dose: 50.0 mg/kg/injection, schedule: Q01DX005 (ip), vehicle: saline with Tween-80.

For the molecule `CSC1CC(C)(O)Cc2cc3c(c(O)c21)C(=O)c1c(O)cc2c(c1C3=O)OC1OC2(C)C(O)C(N(C)C)C1O` (configuration not stated), the T/C (dose: 16.0 mg/kg/injection, schedule: Q01DX009 (ip), vehicle: other) was 100 % of control.

Consider `O=C(CCl)N1CCN(c2ccccc2)CC1`, for which the T/C is, setting by setting: (dose: 60.0 mg/kg/injection, schedule: Q01DX005 (ip), vehicle: saline with Tween-80) 97 % of control; (dose: 120.0 mg/kg/injection, schedule: Q01DX005 (ip), vehicle: saline with Tween-80) 100 % of control; (dose: 240.0 mg/kg/injection, schedule: Q01DX005 (ip), vehicle: saline with Tween-80) 97 % of control.

As for `O=c1oc(-c2ccccc2)cc2ccccc12`, the T/C under setting [1] was 100 % of control and 105 % of control; the T/C under setting [2] was 99 % of control and 109 % of control; the T/C under setting [3] was 99 % of control and 98 % of control; the T/C (dose: 400.0 mg/kg/injection, schedule: Q01DX005 (ip), vehicle: Klucel (hydroxypropylcellulose) (HPC)) is 100 % of control and 93 % of control.

Regarding `C1CCC2C(C1)CCC1CCCCC12` (configuration not stated), the T/C by setting is: (dose: 25.0 mg/kg/injection, schedule: Q01DX001 (ip), vehicle: saline with Tween-80) 96 % of control; (dose: 50.0 mg/kg/injection, schedule: Q01DX001 (ip), vehicle: saline with Tween-80) 113 % of control; under setting [4], 100 % of control and 114 % of control; under setting [5], 110 % of control.

On to `CCCCCCCCCCCCCCCCNc1cccc2ccccc12`, for which the T/C is, setting by setting: (dose: 100.0 mg/kg/injection, schedule: Q01DX009 (ip), vehicle: saline sonified) 95 % of control; under setting [6], 100 % of control; under setting [7], 95 % of control; (dose: 200.0 mg/kg/injection, schedule: Q01DX009 (ip), vehicle: saline sonified) 105 % of control; under setting [8], 90 % of control; under setting [9], 86 % of control. Moreover, the T/C runs as follows: (dose: 400.0 mg/kg/injection, schedule: Q01DX009 (ip), vehicle: saline sonified) 95 % of control; (dose: 400.0 mg/kg/injection, schedule: Q01DX009 (ip), vehicle: saline with Tween-80) 90 % of control; (dose: 400.0 mg/kg/injection, schedule: Q04DX003 (ip), vehicle: saline with Tween-80) 95 % of control.

Consider `O=C(O)c1cc2c([N+](=O)[O-])cccc2[se]1`, for which the T/C is, setting by setting: (dose: 12.5 mg/kg/injection, schedule: Q01DX009 (ip), vehicle: saline) 100 % of control; (dose: 25.0 mg/kg/injection, schedule: Q01DX009 (ip), vehicle: saline) 100 % of control; (dose: 50.0 mg/kg/injection, schedule: Q01DX009 (ip), vehicle: saline) 94 % of control and 97 % of control.

In the case of `CC1=CC(=O)C2C(CC1)C2(C)C` (configuration not stated), the T/C was 102 % of control (dose: 100.0 mg/kg/injection, schedule: Q04DX003 (ip), vehicle: saline + Tween-80 + alcohol); 95 % of control (dose: 200.0 mg/kg/injection, schedule: Q04DX003 (ip), vehicle: saline + Tween-80 + alcohol); 91 % of control (dose: 400.0 mg/kg/injection, schedule: Q04DX003 (ip), vehicle: saline + Tween-80 + alcohol).

With `CC(=O)C1C(=O)OC(C)=C(C(=O)O)C1=O` (configuration not stated), the T/C reads like this: (dose: 50.0 mg/kg/injection, schedule: Q04DX003 (ip), vehicle: saline with Tween-80) 109 % of control; under setting [7], 109 % of control; under setting [9], 100 % of control.

For `CCOC(=O)Nc1nc2ccccc2n1CN1CCOCC1`, the T/C by setting is: (dose: 25.0 mg/kg/injection, schedule: Q01DX005 (ip), vehicle: Klucel (hydroxypropylcellulose) (HPC)) 106 % of control; under setting [1], 106 % of control; under setting [2], 105 % of control; under setting [3], 115 % of control.

On to `O=C(CO)c1ccc([N+](=O)[O-])cc1`, for which the T/C runs as follows: (dose: 1.56 mg/kg/injection, schedule: Q01DX009 (ip), vehicle: saline with Tween-80) 99 % of control; (dose: 3.13 mg/kg/injection, schedule: Q01DX009 (ip), vehicle: saline with Tween-80) 101 % of control; (dose: 6.25 mg/kg/injection, schedule: Q01DX009 (ip), vehicle: saline with Tween-80) 106 % of control; (dose: 12.5 mg/kg/injection, schedule: Q01DX009 (ip), vehicle: saline with Tween-80) 116 % of control.

Take `Cc1ccn2c(=O)c(Br)c(C)nc2c1`: the T/C under setting [4] was 92 % of control; the T/C under setting [5] was 94 % of control; the T/C (dose: 400.0 mg/kg/injection, schedule: Q01DX001 (ip), vehicle: saline with Tween-80) was 97 % of control.

`NC(=O)c1ncn2c(=O)n(CCCl)nnc12`: the T/C reads like this: (dose: 6.25 mg/kg/injection, schedule: Q01DX005 (ip), vehicle: saline) 181 % of control and 236 % of control; (dose: 6.7 mg/kg/injection, schedule: Q01DX005 (ip), vehicle: saline) 254 % of control; (dose: 10.0 mg/kg/injection, schedule: Q01DX005 (ip), vehicle: saline) 565 % of control and 566 % of control; (dose: 12.5 mg/kg/injection, schedule: Q01DX005 (ip), vehicle: saline) 272 % of control and 275 % of control and 297 % of control; (dose: 15.0 mg/kg/injection, schedule: Q01DX005 (ip), vehicle: saline) 566 % of control and 606 % of control; (dose: 22.0 mg/kg/injection, schedule: Q01DX005 (ip), vehicle: saline) 393 % of control and 566 % of control. Moreover, the T/C (dose: 25.0 mg/kg/injection, schedule: Q01DX005 (ip), vehicle: saline) was 272 % of control and 297 % of control and 306 % of control; the T/C (dose: 33.0 mg/kg/injection, schedule: Q01DX005 (ip), vehicle: saline) was 566 % of control and 606 % of control; the T/C under setting [1] is 100 % of control.

With `Cc1nc(N)nc(N)c1-c1ccc(N)cc1`, the T/C was 105 % of control (dose: 12.5 mg/kg/injection, schedule: Q01DX005 (ip), vehicle: saline with Tween-80); 103 % of control (dose: 25.0 mg/kg/injection, schedule: Q01DX005 (ip), vehicle: saline with Tween-80); 98 % of control and 105 % of control under setting [10].

Take `CCOC(=O)c1ccccc1NC(=O)c1ccccc1`: the T/C by setting is: (dose: 25.0 mg/kg/injection, schedule: Q01DX009 (ip), vehicle: saline with Tween-80) 93 % of control; (dose: 50.0 mg/kg/injection, schedule: Q01DX009 (ip), vehicle: saline with Tween-80) 94 % of control; under setting [6], 103 % of control; under setting [8], 111 % of control.

Take `c1ccc(CN2COc3c(ccc4c3OCN(Cc3ccccc3)C4)C2)cc1`: the T/C runs as follows: (dose: 3.12 mg/kg/injection, schedule: Q01DX009 (ip), vehicle: Klucel (hydroxypropylcellulose) (HPC)) 107 % of control; (dose: 6.25 mg/kg/injection, schedule: Q01DX009 (ip), vehicle: Klucel (hydroxypropylcellulose) (HPC)) 104 % of control and 95 % of control; (dose: 12.5 mg/kg/injection, schedule: Q01DX009 (ip), vehicle: Klucel (hydroxypropylcellulose) (HPC)) 103 % of control; (dose: 25.0 mg/kg/injection, schedule: Q01DX009 (ip), vehicle: Klucel (hydroxypropylcellulose) (HPC)) 94 % of control.

As to `CC(C(=O)O)N1C(=O)c2ccccc2C1=O` (configuration not stated), the T/C (dose: 4.0 mg/kg/injection, schedule: Q01DX009 (ip), vehicle: water) was 105 % of control; the T/C (dose: 8.0 mg/kg/injection, schedule: Q01DX009 (ip), vehicle: water) was 100 % of control; the T/C (dose: 16.0 mg/kg/injection, schedule: Q01DX009 (ip), vehicle: water) was 103 % of control; the T/C (dose: 32.0 mg/kg/injection, schedule: Q01DX009 (ip), vehicle: water) is 100 % of control; the T/C (dose: 64.0 mg/kg/injection, schedule: Q01DX009 (ip), vehicle: water) is 99 % of control.

With `NC(N)=NS(=O)(=O)c1ccc(N=CC2C(=O)N(c3ccccc3)N(c3ccccc3)C2=O)cc1`, the T/C reads like this: (dose: 50.0 mg/kg/injection, schedule: Q01DX009 (ip), vehicle: Klucel (hydroxypropylcellulose) (HPC)) 92 % of control; (dose: 100.0 mg/kg/injection, schedule: Q01DX009 (ip), vehicle: Klucel (hydroxypropylcellulose) (HPC)) 92 % of control; (dose: 200.0 mg/kg/injection, schedule: Q01DX009 (ip), vehicle: Klucel (hydroxypropylcellulose) (HPC)) 100 % of control.

In the case of `O=C1CSC(c2ccccc2O)N1c1nncs1` (configuration not stated), the T/C was 94 % of control under setting [10]; 93 % of control (dose: 100.0 mg/kg/injection, schedule: Q01DX005 (ip), vehicle: saline with Tween-80); 93 % of control (dose: 200.0 mg/kg/injection, schedule: Q01DX005 (ip), vehicle: saline with Tween-80).
